Assay results reported in PMC3730168, “Thiol Redox Sensitivity of Two Key Enzymes of Heme Biosynthesis and Pentose Phosphate Pathways: Uroporphyrinogen Decarboxylase and Transketolase” (Oxidative Medicine and Cellular Longevity, 2013).

How the values were obtained:
[1] = biological target: T1, Tkl1p (Saccharomyces cerevisiae, UniProt P23254); assay: fluorescent labelling with eosin-GSH, eosin absorbance at […] nm; type: binding; settings: covalent; labelled compound; excess DiEGSSG
T1 construct: gene TKL1; recombinant, codon-optimised synthetic DNA, C-terminal poly-His tag, E. coli, Ni-Sepharose (Abyntek Biopharma); homodimer
T1 sequence (P23254 1-680): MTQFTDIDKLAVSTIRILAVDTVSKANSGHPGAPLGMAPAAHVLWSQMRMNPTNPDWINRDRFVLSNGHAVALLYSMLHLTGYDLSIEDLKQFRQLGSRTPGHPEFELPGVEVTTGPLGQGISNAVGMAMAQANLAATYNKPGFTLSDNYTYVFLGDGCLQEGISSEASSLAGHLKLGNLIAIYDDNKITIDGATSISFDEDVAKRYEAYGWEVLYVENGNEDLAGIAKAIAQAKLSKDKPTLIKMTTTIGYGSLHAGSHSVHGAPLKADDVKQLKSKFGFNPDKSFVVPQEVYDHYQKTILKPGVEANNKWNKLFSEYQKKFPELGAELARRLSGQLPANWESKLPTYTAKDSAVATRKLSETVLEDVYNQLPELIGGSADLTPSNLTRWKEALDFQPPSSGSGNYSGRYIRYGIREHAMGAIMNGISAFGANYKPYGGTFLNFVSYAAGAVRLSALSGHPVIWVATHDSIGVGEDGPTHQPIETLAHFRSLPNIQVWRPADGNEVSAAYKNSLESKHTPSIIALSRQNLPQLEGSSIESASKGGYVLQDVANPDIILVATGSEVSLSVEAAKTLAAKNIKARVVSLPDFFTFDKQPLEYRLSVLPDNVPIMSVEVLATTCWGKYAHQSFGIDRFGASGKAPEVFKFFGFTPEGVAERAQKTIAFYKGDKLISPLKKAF

[2] = biological target: T2, Hem12p (Saccharomyces cerevisiae, UniProt P32347); assay: as above; type: binding; settings: covalent; labelled compound; excess DiEGSSG
T2 construct: gene HEM12; recombinant, codon-optimised synthetic DNA, C-terminal poly-His tag, E. coli, Ni-Sepharose (Abyntek Biopharma)
T2 sequence (P32347 1-362): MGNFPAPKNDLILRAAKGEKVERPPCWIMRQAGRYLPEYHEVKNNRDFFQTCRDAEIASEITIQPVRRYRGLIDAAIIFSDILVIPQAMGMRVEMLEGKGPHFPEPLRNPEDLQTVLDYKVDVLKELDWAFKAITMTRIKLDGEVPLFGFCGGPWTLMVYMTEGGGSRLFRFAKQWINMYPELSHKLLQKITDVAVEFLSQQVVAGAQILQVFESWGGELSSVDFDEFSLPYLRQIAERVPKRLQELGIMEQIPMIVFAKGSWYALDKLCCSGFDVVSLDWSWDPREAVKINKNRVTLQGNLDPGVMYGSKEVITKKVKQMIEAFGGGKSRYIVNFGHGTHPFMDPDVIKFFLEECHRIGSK

moles of fluorescent moiety per mole protein [1]: ~ 0.35 mol/mol | moles of fluorescent glutathione per mole protein [2]: ~ 1.5 mol/mol
Structure (SMILES): O=C(O)CNC(=O)[C@H](CSSC[C@H](NC(=O)CC[C@H](NC(=S)Nc1ccc(-c2c3cc(Br)c(=O)c(Br)c-3oc3c(Br)c(O)c(Br)cc23)c(C(=O)O)c1)C(=O)O)C(=O)NCC(=O)O)NC(=O)CC[C@H](NC(=S)Nc1ccc(-c2c3cc(Br)c(=O)c(Br)c-3oc3c(Br)c(O)c(Br)cc23)c(C(=O)O)c1)C(=O)O [DiEGSSG, dieosinediglutathione]
